Tests used:
Type in all cases: binding, human
serum 6 (individual 6) = system: serum 6 (individual 6)
[1] = system: serum 1a (individual 1, early serum)
[2] = system: sera SARS-green, SARS-yellow, 1a, 1b, 2, 6, 37, 62 and London
serum SARS-yellow = system: serum SARS-yellow
serum 62 (individual 62) = system: serum 62 (individual 62)
[3] = system: control serum Blood-bank (commercial negative donor pooled serum)
serum SARS-green = system: serum SARS-green
serum London = system: serum London
[4] = system: serum 1b (individual 1, late serum)
serum 2 (individual 2) = system: serum 2 (individual 2)
serum 37 (individual 37) = system: serum 37 (individual 37)
[5] = system: control serum LUMC (pooled serum of ten healthy hospital workers)

Sequence | Binding of serum 6 to linear peptides of Orf14 of SARS-CoV TOR2 (serum 6 (individual 6)) | Binding of serum 1a to linear peptides of Orf14 of SARS-CoV TOR2 [1] | Recognition of the peptide by sera of individuals infected by SARS-CoV, form recognized [2] | Binding of serum SARS-yellow to linear peptides of Orf14 of SARS-CoV TOR2 (serum SARS-yellow) | Binding of serum 62 to linear peptides of Orf14 of SARS-CoV TOR2 (serum 62 (individual 62)) | Control Serum Blood-Bank Looped peptides [3] | Control serum Blood-bank linear peptides [3] | Binding of serum SARS-green to linear peptides of Orf14 of SARS-CoV TOR2 (serum SARS-green) | Binding of serum London to linear peptides of Orf14 of SARS-CoV TOR2 (serum London) | Binding of serum 1b to linear peptides of Orf14 of SARS-CoV TOR2 [4] | Binding of serum 2 to linear peptides of Orf14 of SARS-CoV TOR2 (serum 2 (individual 2)) | Binding of serum 37 to linear peptides of Orf14 of SARS-CoV TOR2 (serum 37 (individual 37)) | Control serum LUMC linear peptides [5] | Control serum LUMC looped peptides [5]
EQHCQKASTQREAEA | 0.4 | 0.4 | recognized in looped form | 0.4 | 0.3 | 0.9 | 0.5 | 0.3 | 0.5 | 0.4 | 0.6 | 0.5 | 0.4 | 0.8
FLKEQHCQKASTQRE | 0.2 | 0.3 | recognized in looped form | 0.2 | 0.3 | 0.9 | 0.4 | 0.1 | 0.3 | 0.3 | 0.3 | 0.4 | 0.3 | 1.1
HCQKASTQREAEAAV | 0.6 | 0.6 | recognized in looped form | 0.6 | 0.7 | 0.9 | 0.5 | 0.4 | 0.7 | 0.5 | 0.9 | 0.7 | 0.6 | 0.8
KASTQREAEAAVKPL | 0.3 | 0.3 | recognized in looped form | 0.1 | 0.2 | 0.6 | 0.3 | 0.1 | 0.2 | 0.3 | 0.3 | 0.3 | 0.3 | 0.6
KEQHCQKASTQREAE | 0.3 | 0.4 | recognized in looped form | 0.2 | 0.2 | 0.9 | 0.3 | 0.1 | 0.3 | 0.3 | 0.4 | 0.4 | 0.3 | 0.8
LKEQHCQKASTQREA | 0.2 | 0.3 | recognized in looped form | 0.3 | 0.2 | 0.9 | 0.3 | 0.1 | 0.3 | 0.2 | 0.4 | 0.4 | 0.3 | 0.9

— patent publication US20060154243A1 (priority 2003, published 2006)
